Assay results: patent publication US6429173B1, “Defloration agent for apple trees” (Agro-Kanesho Co., Ltd., priority 1998, dated 2002)

Test system: apple tree (variety: Fuji)
Experiment: Defloration effect (percentage of remaining fruits) after spraying a flowering apple branch
Format: in vivo
Settings: Low temperature condition (14.6° C.); ethephon alone 100 ppm, compound (I) 0 ppm; 30 days after spraying
Source text: The ME preparation and ethephon preparation produced as described above were mixed together to obtain an application solution.
A branch having about 50 bunches of flowers was selected from a 13-year old apple tree (variety: Fuji). The application solution produced as described above was sprayed over the whole branch with a knapsack sprayer on the day after the full blossom of the central flower. The evaluation results are shown by percentages of remaining fruits (both central and lateral fruits) calculated by the formula shown below. The phytotoxicity was determined on the basis of defoliation, discolored leaves, state of leaves and also state of russet, and the results were classified into the following 5 ranks (− to +++).
Percentage of remaining fruits ≈ number of normal fruits on the test day/number of flowers on the treatment day × 100

## O=P(O)(O)CCCl [Ethephon, 2-chloroethylphosphonic acid]
  Fruit setting rate (%) Central fruit: 83%
  Fruit setting rate (%) Lateral fruit: 42%
